Measured values published in patent US5506102A (priority 1993, dated 1996).

Key:
Assay type in all cases: cell-based
human androgen receptor = target: T1, human androgen receptor (Homo sapiens, UniProt P10275); test: AR transcriptional activity on MMTV-LUC, CV-1 cells, AR co-expressed with PR-A; settings: AR plus PR-A, FIG. 10B
T1 sequence (P10275 1-920): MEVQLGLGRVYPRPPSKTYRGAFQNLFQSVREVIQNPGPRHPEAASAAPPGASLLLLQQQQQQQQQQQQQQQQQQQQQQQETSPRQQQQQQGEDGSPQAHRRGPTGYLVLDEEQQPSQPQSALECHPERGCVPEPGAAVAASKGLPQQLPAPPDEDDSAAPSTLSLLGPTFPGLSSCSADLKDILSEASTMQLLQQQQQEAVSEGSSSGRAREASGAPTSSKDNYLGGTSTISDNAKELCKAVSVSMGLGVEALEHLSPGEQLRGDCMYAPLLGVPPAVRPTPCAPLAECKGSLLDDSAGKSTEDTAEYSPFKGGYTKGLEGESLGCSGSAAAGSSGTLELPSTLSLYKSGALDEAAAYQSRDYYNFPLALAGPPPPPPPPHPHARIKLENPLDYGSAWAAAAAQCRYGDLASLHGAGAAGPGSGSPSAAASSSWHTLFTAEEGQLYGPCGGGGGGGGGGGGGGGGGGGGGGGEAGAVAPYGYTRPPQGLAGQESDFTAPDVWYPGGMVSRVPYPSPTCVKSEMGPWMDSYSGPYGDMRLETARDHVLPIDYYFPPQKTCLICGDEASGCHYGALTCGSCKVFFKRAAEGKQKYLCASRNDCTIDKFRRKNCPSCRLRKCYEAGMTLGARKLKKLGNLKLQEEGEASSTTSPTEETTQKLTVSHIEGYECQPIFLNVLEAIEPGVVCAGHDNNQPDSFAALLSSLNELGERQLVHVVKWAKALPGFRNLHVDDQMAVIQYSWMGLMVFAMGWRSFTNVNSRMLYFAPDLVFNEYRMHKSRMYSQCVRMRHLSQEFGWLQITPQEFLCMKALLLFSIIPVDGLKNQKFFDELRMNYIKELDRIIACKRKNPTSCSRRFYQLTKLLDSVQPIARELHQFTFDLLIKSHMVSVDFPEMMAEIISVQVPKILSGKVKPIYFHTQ
Method: FIGS. 10A-10B are a series of graphs showing CV-1 cells that were transiently transfected with an expression vector for the human androgen receptor (pRShAR) alone, or in combination with phPR-A together with 5 µg/ml of the MMTV-LUC reporter and 5 µg/ml of pCH110 as an internal control. […] The relative luciferase activity is calculated by dividing the normalized luciferase value at a given point by that obtained in the absence of transfected receptor or ligand. […] The data are presented as percent (%) activation, where 100% represents the maximal induction achieved by human androgen receptor at 10^ -8 M DHT. The experimental data represents mean values +/- the average deviation from the mean of quadruplicate estimations;
Cells were seeded in 12-well, 96-well or 10 cm tissue culture plates. […] 20 μg of DNA/ml of transfection buffer were used in each transfection reaction. In this mix, the concentration of the luciferase plasmids and that of the internal control plasmid pCH110 (Pharmacia, Inc.), which contains the gene for the β-galactosidase enzyme, remained constant ([…] of each plasmid DNA), while the receptor plasmid concentration varied as indicated for each experiment. […]

human estrogen receptor = test: ER transcriptional activity on MMTV-ERE-LUC, CV-1 cells, ER co-expressed with PR-A
Method: All values were normalized for transfection efficiency by simultaneous estimation of luciferase and β-galactocidase activities. The relative luciferase activity is calculated by dividing the normalized luciferase value at a given point by that obtained in the absence of transfected receptor or ligand. Data shown represent the mean +/- the average deviation from the mean of triplicate estimations.
Experimental protocols and data calculation are as described in FIG. 11. The experiment detailed above is representative of independent assays (N>3). Data shown represent the mean +/- the average deviation from the mean of triplicate estimations.
Vegeto et al., supra. Cells were plated into 96-well tissue culture plates. The vector DNA was introduced into the CV-1 cells using calcium phosphate coprecipitation as described herein. More specifically, 20 μg of DNA/ml of transfection buffer were used in each transfection. Each transfection mix included 0.5 μg of pRST7hER, 9.5 μg of MMTV-ERE-LUC, 5 μg of pCH110, (which contains the gene for β-galactosidase) as an internal control and 5 μg of PGEM4 DNA as a carrier. Depending on the experiment, 0.1 μg pSVhPR-A or pSVhPR-B and an amount of pSVXV2neo (Dr. Bert O'Malley, Baylor College of Medicine) to bring the total amount of DNA to 20 μg was added. The concentration of pXVhPR-A vector chosen was determined by performing the experiment at several different concentrations of vector, and then using that concentration that was optimal for transcriptional readout. The concentration of pSVhPR-B vector was chosen based upon the amount required to give an identical amount of immunoreactive PR-A and PR-B. After transfections using a Biomek 1000 automated laboratory workstation, the cells were incubated with the precipitate for 6 hours. Cells were washed with PBS and incubated for 40 hours with or without hormones as indicated. Cell extracts were prepared as previously described herein and assayed for luciferase (LUC) and β-galactosidase activities. The Normalized LUC activity was calculated by dividing the raw luciferase (×10^4) units for each point by the β-galactosidase activity [(OD415 nm ×10^5)/time min.] at that point.

[1] = tested on: glucocorticoid receptor (GR); test: GR transcriptional activity on MMTV-LUC, CV-1 cells, GR co-expressed with PR-B; settings: progesterone and dexamethasone, FIG. 5B
Method: Cells were seeded in 12-well, 96-well or 10 cm tissue culture plates. […] 20 μg of DNA/ml of transfection buffer were used in each transfection reaction. In this mix, the concentration of the luciferase plasmids and that of the internal control plasmid pCH110 (Pharmacia, Inc.), which contains the gene for the β-galactosidase enzyme, remained constant ([…] of each plasmid DNA), while the receptor plasmid concentration varied as indicated for each experiment. Different amounts of receptor parental plasmid, pSV2-neo (Dr. Bert O'Malley, Baylor College of Medicine, Houston, Tex.) was included to keep constant the total amount of the SV40 enhancer vectors. pGEM4 plasmid DNA (Promega Biotech, Madison, Wis.) was added to balance the total DNA concentration to 20 g/reaction. For the 96-well plate experiments, transfections were performed on a Biomek 1000 Automated Laboratory Workstation (Beckman Instruments, Fullerton, Calif.).
Cells were seeded 24 hours prior to transfection in the fiat-bottom tissue culture plates ([…]) in phenol red-free DMEM containing 10% FCS. […] Using calcium phosphate co-precipitation, DNA solution was added dropwise with vortexing into an equal volume of 2X HBS pH 6.9 (280 mM NaCl. 50 mM HEPES, 1.5 mM Na2 HPO4) and precipitates were allowed to form for 20 minutes. […]

Row | effect on DHT-induced AR activity in the presence of PR-A (human androgen receptor) | IC50 (human estrogen receptor; 10^-7 M 17-β-estradiol, read-out: half maximal inhibition (IC50) of ER in the presence of hPR-A) [nM] | Compound | efficacy compared to the pure anti-estrogen ICI-164,384 (human estrogen receptor; PR-A co-expressed, 100% = 10^-7 M 17-β-estradiol + 10^-6 M ICI-164,384, FIG. 12) | effect of PR-B co-expression on GR function [1] | maximal inhibition of ER activation by 17-β-estradiol (human estrogen receptor; 10 nM progesterone, hPR-A co-expressed, 10^-7 M 17β-estradiol, FIG. 11C) [%]
1 | increased by the introduction of PR-A | 0.5 | CC#C[C@]1(O)CC[C@H]2[C@@H]3CCC4=CC(=O)CCC4=C3[C@@H](c3ccc(C(C)=O)cc3)C[C@@]21C [ZK112993] | greater than 80% |  | 
2 |  |  | CC(=O)[C@H]1CC[C@H]2[C@@H]3CCC4=CC(=O)CC[C@]4(C)[C@H]3CC[C@]12C [progesterone] |  | minimal effects on GR function | 55
